Measured values published in PubChem BioAssay AID1996.
≈ marks a conversion by molar mass, not a printed value.

Conditions: buffer; pH 7.4; 200.0 µM

First: O=[N+]([O-])c1ccc(Cc2cncc(O)c2)cc1
Second: COc1ccc(Nc2ccc([N+](=O)[O-])cc2[N+](=O)[O-])cc1
The solubility kinetic of the first is 23-fold higher: 34.1 µg/mL (≈ 148 µM) for the first, 1.5 µg/mL (≈ 5.19 µM) for the second.

First: O=C(CN1C(=O)C2CCCCC2C1=O)Nc1cccc(C(F)(F)F)c1 (stereo not drawn)
Second: CN1CCN(CCC(=O)Nc2cccc(Br)c2)CC1
The solubility kinetic of the first is higher: > 53.1 µg/mL for the first, 42.6 µg/mL (≈ 131 µM) for the second.

CC(C)Nc1nc(NC2CCCC2)nc(N2CCOCC2)n1 and CC(C)C(NC(=O)c1c(F)cccc1F)C(=O)N1CCN(c2ncccn2)CC1 (stereo not drawn) are within 1.5-fold of each other in solubility kinetic: 16.3 µg/mL (≈ 53.2 µM) for the first, 12.1 µg/mL (≈ 30 µM) for the second.

CCOC(=O)CC(N)c1cccc([N+](=O)[O-])c1.Cl (stereo not drawn) and CCOP(=O)(OCC)C1NC(=O)N(c2ccccc2)C1=O (stereo not drawn) cannot be ordered by solubility kinetic: > 41.2 µg/mL for the first, > 46.8 µg/mL for the second.

Compared with c1ccc2c3c([nH]c2c1)CNCC3, O=Cc1c(NCc2ccc(Cl)cc2)c2ccccc2[nH]c1=O is lower in solubility kinetic: > 25.8 µg/mL for the first, 2.8 µg/mL (≈ 8.95 µM) for the second.

Compared with C=CCNc1nc(Cl)nc(NCc2ccco2)n1, Cc1cc(SCNC(=O)c2ccccc2)nc(C(C)C)n1 is higher in solubility kinetic: 1.9 µg/mL (≈ 7.15 µM) for the first, > 45.2 µg/mL for the second.

First: CC1(/[N+]([O-])=C/c2ccc(Cl)cc2Cl)CCCCC1=O (stereo not drawn)
Second: O=C(Cc1ccc(Cl)cc1)N1CCN(c2ccc(F)cc2)CC1
The solubility kinetic of the first is 2.3-fold higher: 42.9 µg/mL (≈ 143 µM) for the first, 19 µg/mL (≈ 57.1 µM) for the second.

O=C(O)C1C2CCC(O2)C1C(=O)Nc1cccc(Br)c1 (stereo not drawn) and O=C(O)c1ccccc1C(=O)NC1Cc2ccccc2C1 are within 1.5-fold of each other in solubility kinetic: 50.7 µg/mL (≈ 149 µM) for the first, 42.1 µg/mL (≈ 150 µM) for the second.

COc1ccc(C2SCC(=O)N2c2ccccc2)cc1 (stereo not drawn) and COc1cccc(N2C(=O)CC(N3CCc4ccccc4C3)C2=O)c1 (stereo not drawn) are within 1.5-fold of each other in solubility kinetic: 38.6 µg/mL (≈ 135 µM) for the first, 50.4 µg/mL (≈ 150 µM) for the second.

Compared with CN1C(=O)C(c2ccccc2)C(=O)N(C)C1=O, O=C(Nc1ccccc1)Nc1ccno1 is higher in solubility kinetic: 30.5 µg/mL (≈ 131 µM) for the first, > 30.5 µg/mL for the second.

Compared with Cc1ccccc1OCC(O)CN(CCO)Cc1ccccc1.Cl (stereo not drawn), N#Cc1ccccc1NC(=O)COc1ccccc1C(=O)Nc1ccccc1 is 6.1-fold lower in solubility kinetic: 40.4 µg/mL for the first, 6.6 µg/mL (≈ 17.8 µM) for the second.

Going from CCOc1ccc(C(=S)N2CCCC2)cc1OCC to COc1ccc(/C=C/C(=O)NCc2ccc3c(c2)OCO3)cc1OC, the solubility kinetic falls from 41.8 µg/mL (≈ 150 µM) to 2.8 µg/mL (≈ 8.2 µM) (15-fold).

CC(=O)N(c1ccc(Cl)cc1)c1nc(C)cc(C)c1C#N and Oc1[nH]c(=S)sc1C=C1N=c2ccccc2=N1 cannot be ordered by solubility kinetic: > 45 µg/mL for the first, > 39.2 µg/mL for the second.

Going from CCC(C)(C)c1ccc(Oc2ccc(N)cc2)cc1 to CC(C)CNS(=O)(=O)c1cc2c3c(c1)CCC(=O)N3CCC2, the solubility kinetic rises from 4.2 µg/mL (≈ 16.4 µM) to > 48.4 µg/mL.
